Data: ChEMBL document CHEMBL1142788, “Synthesis and antibacterial activity of alkyl derivatives of the glycopeptide antibiotic A40926 and their amides” (2005)
≈ marks a conversion by molar mass, not a printed value.

Assays:
Enterococcus faecium [1] = assay: Minimum inhibitory concentration against vancomycin-A Enterococcus faecium in the presence of 30% bovine serum (n=1) (range = 64>128mg/L); type: functional
Enterococcus faecalis [2] = assay: Minimum inhibitory concentration against vancomycin-sensitive Enterococcus faecalis in the presence of 30% bovine serum(n=3)(range = 0.5-1 mg/l); type: functional
[3] = system: Staphylococcus epidermidis; assay: Minimum inhibitory concentration against methicillin-sensitive Staphylococcus epidermidis in the presence of 30% bovine serum; type: functional
[4] = system: Staphylococcus haemolyticus; assay: Minimum inhibitory concentration against Staphylococcus haemolyticus in the presence of 30% bovine serum; type: functional
Enterococcus faecalis [5] = assay: Minimum inhibitory concentration against vancomycin-A Enterococcus faecalis in the presence of 30% bovine serum (n=4); type: functional
[6] = system: Staphylococcus epidermidis; assay: Minimum inhibitory concentration against methicillin-resistant Staphylococcus epidermidis in the presence of 30% bovine serum; type: functional
Enterococcus faecium [7] = assay: Minimum inhibitory concentration against vancomycin-sensitive Enterococcus faecium in the presence of 30% bovine serum(n=1); type: functional
Staphylococcus aureus [8] = assay: Minimum inhibitory concentration against methicillin-resistant Staphylococcus aureus
Staphylococcus aureus [9] = assay: Minimum inhibitory concentration against methicillin-sensitive Staphylococcus aureus
Enterococcus faecium [10] = assay: Minimum inhibitory concentration against vancomycin-A Enterococcus faecium in the presence of 30% bovine serum (n=1) (range = 2-128mg/L); type: functional
Enterococcus faecalis [11] = assay: Minimum inhibitory concentration against vancomycin-sensitive Enterococcus faecalis in the presence of 30% bovine serum(n=3); type: functional
Enterococcus faecalis [12] = assay: Minimum inhibitory concentration against vancomycin-A Enterococcus faecalis (n=4) (range = 4-128mg/L)
Enterococcus faecalis [13] = assay: Minimum inhibitory concentration against vancomycin-A Enterococcus faecalis in the presence of 30% bovine serum(n=4) (range = 64-128mg/L); type: functional
Enterococcus faecium [14] = assay: Minimum inhibitory concentration against vancomycin-A Enterococcus faecium in the presence of 30% bovine serum (n=1) (range = 4>128mg/L); type: functional
Enterococcus faecalis [15] = assay: Minimum inhibitory concentration against vancomycin-sensitive Enterococcus faecalis in the presence of 30% bovine serum(n=3)(range = 0.25-0.5mg/l); type: functional
Enterococcus faecalis [16] = assay: Minimum inhibitory concentration against vancomycin-A Enterococcus faecalis in the presence of 30% bovine serum(n=4) (range = 128>128 mg/L); type: functional
Enterococcus faecium [17] = assay: Minimum inhibitory concentration against vancomycin-A Enterococcus faecium in the presence of 30% bovine serum (n=1); type: functional
Enterococcus faecium [18] = assay: Minimum inhibitory concentration against vancomycin-A Enterococcus faecium in the presence of 30% bovine serum (n=1) (range = 0.5-16mg/l); type: functional
Enterococcus faecalis [19] = assay: Minimum inhibitory concentration against vancomycin-sensitive Enterococcus faecalis in the presence of 30% bovine serum (n=3) (range = <0.125-0.25); type: functional
Enterococcus faecalis [20] = assay: Minimum inhibitory concentration against vancomycin-A Enterococcus faecalis (n=4) (range = 0.25-8mg/L)
Enterococcus faecalis [21] = assay: Minimum inhibitory concentration against vancomycin-sensitive Enterococcus faecalis in the presence of 30% bovine serum (n=3) (range = 8-4); type: functional
Enterococcus faecium [22] = assay: Minimum inhibitory concentration against vancomycin-A Enterococcus faecium in the presence of 30% bovine serum in the presence of 30% bovine serum (n=1); type: functional
Enterococcus faecium [23] = assay: Minimum inhibitory concentration against vancomycin-sensitive Enterococcus faecium in the presence of 30% bovine serum (n=1); type: functional

| Structure (SMILES) | MIC (Enterococcus faecium [1]) | MIC [3] | MIC [4] | MIC (Enterococcus faecalis [5]) | MIC [6] | MIC (Enterococcus faecium [7]) | MIC (Staphylococcus aureus [8]) | MIC (Staphylococcus aureus [9]) | MIC (Enterococcus faecalis [11]) | MIC (Enterococcus faecalis [16]) | further results |
| --- | --- | --- | --- | --- | --- | --- | --- | --- | --- | --- | --- |
| CCCCOc1ccc(CNC2[C@H](Oc3c4cc5cc3Oc3ccc(cc3Cl)[C@@H](O)C3NC(=O)[C@H](NC(=O)[C@@H]5NC(=O)[C@H]5NC(=O)[C@@H](Cc6ccc(cc6)O4)NC(=O)[C@H](NC)c4ccc(O)c(c4)Oc4cc(O)c(Cl)c5c4)c4ccc(O)c(c4)-c4c(O[C@H]5O[C@H](CO)[C@@H](O)[C@H](O)[C@@H]5O)cc(O)cc4[C@@H](C(=O)O)NC3=O)OC(C(=O)O)C(O)[C@@H]2O)cc1 (stereo not given in full) | > 128 µg/mL | 1 µg/mL | 32 µg/mL | 128 µg/mL | 16 µg/mL | 1 µg/mL | 1 µg/mL (≈ 0.584 µM) | 1 µg/mL (≈ 0.584 µM) | – | – | MIC (Enterococcus faecalis [2]): 1 µg/mL |
| CN(Cc1ccc2ccccc2c1)[C@H]1C(=O)N[C@@H]2Cc3ccc(cc3)Oc3cc4cc(c3O[C@@H]3OC(C(=O)O)C(O)[C@H](O)C3NCc3ccc5ccccc5c3)Oc3ccc(cc3Cl)[C@@H](O)C3NC(=O)[C@H](NC(=O)[C@@H]4NC(=O)[C@@H](NC2=O)c2cc(cc(O)c2Cl)Oc2cc1ccc2O)c1ccc(O)c(c1)-c1c(O[C@H]2O[C@H](CO)[C@@H](O)[C@H](O)[C@@H]2O)cc(O)cc1[C@@H](C(=O)O)NC3=O (stereo not given in full) | – | 2 µg/mL | 16 µg/mL | – | 16 µg/mL | 2 µg/mL | 1 µg/mL (≈ 0.546 µM) | 2 µg/mL (≈ 1.09 µM) | < 0.125 µg/mL | – | MIC (Enterococcus faecium [10]): > 128 µg/mL; MIC (Enterococcus faecalis [12]): 128 µg/mL (≈ 69.9 µM) |
| CCCCc1ccc(CNC2[C@H](Oc3c4cc5cc3Oc3ccc(cc3Cl)[C@@H](O)C3NC(=O)[C@H](NC(=O)[C@@H]5NC(=O)[C@H]5NC(=O)[C@@H](Cc6ccc(cc6)O4)NC(=O)[C@H](NC)c4ccc(O)c(c4)Oc4cc(O)c(Cl)c5c4)c4ccc(O)c(c4)-c4c(O[C@H]5O[C@H](CO)[C@@H](O)[C@H](O)[C@@H]5O)cc(O)cc4[C@@H](C(=O)O)NC3=O)OC(C(=O)O)C(O)[C@@H]2O)cc1 (stereo not given in full) | > 128 µg/mL | 0.25 µg/mL | 16 µg/mL | – | 4 µg/mL | 2 µg/mL | 0.25 µg/mL (≈ 0.147 µM) | 0.25 µg/mL (≈ 0.147 µM) | < 0.125 µg/mL | – | MIC (Enterococcus faecalis [13]): 128 µg/mL |
| CN(Cc1ccc(-c2ccccc2)cc1)[C@H]1C(=O)N[C@@H]2Cc3ccc(cc3)Oc3cc4cc(c3O[C@@H]3OC(C(=O)O)C(O)[C@H](O)C3N)Oc3ccc(cc3Cl)[C@@H](O)C3NC(=O)[C@H](NC(=O)[C@@H]4NC(=O)[C@@H](NC2=O)c2cc(cc(O)c2Cl)Oc2cc1ccc2O)c1ccc(O)c(c1)-c1c(O[C@H]2O[C@H](CO)[C@@H](O)[C@H](O)[C@@H]2O)cc(O)cc1[C@@H](C(=O)O)NC3=O (stereo not given in full) | – | 2 µg/mL | 32 µg/mL | – | 16 µg/mL | 0.5 µg/mL | 1 µg/mL (≈ 0.583 µM) | 1 µg/mL (≈ 0.583 µM) | – | 128 µg/mL | MIC (Enterococcus faecium [14]): > 128 µg/mL; MIC (Enterococcus faecalis [15]): 0.5 µg/mL |
| CN[C@H]1C(=O)N[C@@H]2Cc3ccc(cc3)Oc3cc4cc(c3O[C@@H]3OC(C(=O)NCCCN(C)C)C(O)[C@H](O)C3N)Oc3ccc(cc3Cl)[C@@H](O)C3NC(=O)[C@H](NC(=O)[C@@H]4NC(=O)[C@@H](NC2=O)c2cc(cc(O)c2Cl)Oc2cc1ccc2O)c1ccc(O)c(c1)-c1c(O[C@H]2O[C@H](CO)[C@@H](O)[C@H](O)[C@@H]2O)cc(O)cc1[C@@H](C(=O)NCCCN(C)C)NC3=O (stereo not given in full) | – | 1 µg/mL | 0.05 µg/mL | – | – | 1 µg/mL | 2 µg/mL (≈ 1.16 µM) | 1 µg/mL (≈ 0.582 µM) | 1 µg/mL | 128 µg/mL | MIC (Enterococcus faecium [17]): > 128 µg/mL |
| CCCCc1ccc(CNC2[C@H](Oc3c4cc5cc3Oc3ccc(cc3Cl)[C@@H](O)C3NC(=O)[C@H](NC(=O)[C@@H]5NC(=O)[C@H]5NC(=O)[C@@H](Cc6ccc(cc6)O4)NC(=O)[C@H](N(C)Cc4ccc(CCCC)cc4)c4ccc(O)c(c4)Oc4cc(O)c(Cl)c5c4)c4ccc(O)c(c4)-c4c(O[C@H]5O[C@H](CO)[C@@H](O)[C@H](O)[C@@H]5O)cc(O)cc4[C@@H](C(=O)NCCCN(C)C)NC3=O)OC(C(=O)NCCCN(C)C)C(O)[C@@H]2O)cc1 (stereo not given in full) | – | 0.25 µg/mL | 2 µg/mL | – | 2 µg/mL | 0.5 µg/mL | 2 µg/mL (≈ 0.995 µM) | 1 µg/mL (≈ 0.497 µM) | – | – | MIC (Enterococcus faecium [18]): 16 µg/mL; MIC (Enterococcus faecalis [19]): < 0.125 µg/mL; MIC (Enterococcus faecalis [20]): 8 µg/mL (≈ 3.98 µM) |
| CCCCc1ccc(CN(C)[C@H]2C(=O)N[C@@H]3Cc4ccc(cc4)Oc4cc5cc(c4O[C@@H]4OC(C(=O)O)C(O)[C@H](O)C4N)Oc4ccc(cc4Cl)[C@@H](O)C4NC(=O)[C@H](NC(=O)[C@@H]5NC(=O)[C@@H](NC3=O)c3cc(cc(O)c3Cl)Oc3cc2ccc3O)c2ccc(O)c(c2)-c2c(O[C@H]3O[C@H](CO)[C@@H](O)[C@H](O)[C@@H]3O)cc(O)cc2[C@@H](C(=O)O)NC4=O)cc1 (stereo not given in full) | – | 1 µg/mL | 32 µg/mL | – | 8 µg/mL | 0.5 µg/mL | 1 µg/mL (≈ 0.589 µM) | 1 µg/mL (≈ 0.589 µM) | – | 128 µg/mL | MIC (Enterococcus faecium [14]): > 128 µg/mL; MIC (Enterococcus faecalis [15]): 0.5 µg/mL |
| CN(C)CCCNC(=O)C1O[C@@H](Oc2c3cc4cc2Oc2ccc(cc2Cl)[C@@H](O)C2NC(=O)[C@H](NC(=O)[C@@H]4NC(=O)[C@H]4NC(=O)[C@@H](Cc5ccc(cc5)O3)NC(=O)[C@H](N(C)Cc3ccc(C(=O)Oc5ccccc5)cc3)c3ccc(O)c(c3)Oc3cc(O)c(Cl)c4c3)c3ccc(O)c(c3)-c3c(O[C@H]4O[C@H](CO)[C@@H](O)[C@H](O)[C@@H]4O)cc(O)cc3[C@@H](C(=O)NCCCN(C)C)NC2=O)C(NCc2ccc(C(=O)Oc3ccccc3)cc2)[C@@H](O)C1O (stereo not given in full) | – | 0.25 µg/mL | 2 µg/mL | – | 2 µg/mL | 0.5 µg/mL | 1 µg/mL (≈ 0.467 µM) | 1 µg/mL (≈ 0.467 µM) | – | – | MIC (Enterococcus faecium [18]): > 16 µg/mL; MIC (Enterococcus faecalis [19]): 0.25 µg/mL |
| CN[C@H]1C(=O)N[C@@H]2Cc3ccc(cc3)Oc3cc4cc(c3O[C@@H]3OC(C(=O)O)C(O)[C@H](O)C3N)Oc3ccc(cc3Cl)[C@@H](O)C3NC(=O)[C@H](NC(=O)[C@@H]4NC(=O)[C@@H](NC2=O)c2cc(cc(O)c2Cl)Oc2cc1ccc2O)c1ccc(O)c(c1)-c1c(O[C@H]2O[C@H](CO)[C@@H](O)[C@H](O)[C@@H]2O)cc(O)cc1[C@@H](C(=O)O)NC3=O (stereo not given in full) | – | – | – | > 128 µg/mL | – | – | 16 µg/mL (≈ 10.3 µM) | 16 µg/mL (≈ 10.3 µM) | – | – | MIC (Enterococcus faecalis [21]): 8 µg/mL; MIC (Enterococcus faecium [22]): > 128 µg/mL; MIC (Enterococcus faecium [23]): 8 µg/mL |
| CN[C@H]1C(=O)N[C@@H]2Cc3ccc(cc3)Oc3cc4cc(c3O[C@@H]3OC(C(=O)O)C(O)[C@H](O)C3NCc3ccc5ccccc5c3)Oc3ccc(cc3Cl)[C@@H](O)C3NC(=O)[C@H](NC(=O)[C@@H]4NC(=O)[C@@H](NC2=O)c2cc(cc(O)c2Cl)Oc2cc1ccc2O)c1ccc(O)c(c1)-c1c(O[C@H]2O[C@H](CO)[C@@H](O)[C@H](O)[C@@H]2O)cc(O)cc1[C@@H](C(=O)O)NC3=O (stereo not given in full) | > 128 µg/mL | 2 µg/mL | 32 µg/mL | 128 µg/mL | 16 µg/mL | 2 µg/mL | 1 µg/mL (≈ 0.592 µM) | 2 µg/mL (≈ 1.18 µM) | – | – | MIC (Enterococcus faecalis [2]): 1 µg/mL |
